# Laboratory results: PubChem BioAssay (NCI)
#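 Dose response: 5 concentrations. Exposure: 48 h. Format: 96-well plates. Endpoint: linear interpolation; highest concentration if not reached. At the TGI there is no net growth.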
# Legend:
# Experiment in all cases: growth of human tumour cells (NCI), 48 h
# [1] = tested on: SW-620 colon
# [2] = tested on: UACC-62 melanoma
# [3] = tested on: SK-MEL-2 melanoma
# [4] = tested on: PC-3 prostate
# [5] = tested on: CCRF-CEM leukemia
# [6] = tested on: IGROV1 ovarian
# [7] = tested on: DU-145 prostate
# [8] = tested on: NCI/ADR-RES ovarian
# [9] = tested on: HCT-116 colon
# [10] = tested on: UACC-257 melanoma
# [11] = tested on: 786-0 renal
# [12] = tested on: SK-MEL-28 melanoma
# [13] = tested on: U251 CNS
# [14] = tested on: MDA-N
# [15] = tested on: COLO 205 colon
# [16] = tested on: HCT-15 colon
# [17] = tested on: KM12 colon
# [18] = tested on: MDA-MB-435
# [19] = tested on: SN12C renal
# [20] = tested on: MDA-MB-231 breast
# [21] = tested on: CAKI-1 renal
# [22] = tested on: LOX IMVI melanoma
# [23] = tested on: OVCAR-3 ovarian
# [24] = tested on: HT29 colon
# [25] = tested on: A549 NSCLC
# [26] = tested on: RXF 393 renal
# [27] = tested on: TK-10 renal
# [28] = tested on: A498 renal
# [29] = tested on: OVCAR-5 ovarian
# [30] = tested on: NCI-H226 lung
# [31] = tested on: M14 melanoma
# [32] = tested on: HS 578T breast
# [33] = tested on: HL-60(TB) leukemia
# [34] = tested on: RPMI-8226 leukemia
# [35] = tested on: SK-OV-3 ovarian
# [36] = tested on: HOP-92 NSCLC
# [37] = tested on: SF-539 CNS
# [38] = tested on: OVCAR-4 ovarian
# [39] = tested on: NCI-H23 lung
# [40] = tested on: MCF7 breast
# [41] = tested on: SK-MEL-5 melanoma
# [42] = tested on: SR leukemia
# [43] = tested on: SNB-75 CNS
# [44] = tested on: HCC-2998 colon
# [45] = tested on: HOP-62 NSCLC
# [46] = tested on: BT-549 breast
# [47] = tested on: SF-295 CNS
# [48] = tested on: UO-31 renal
# [49] = tested on: NCI-H522 lung
# [50] = tested on: SF-268 CNS
# [51] = tested on: MOLT-4 leukemia
# [52] = tested on: MALME-3M melanoma
# [53] = tested on: EKVX NSCLC
# [54] = tested on: T-47D breast
# [55] = tested on: OVCAR-8 ovarian
smiles,measurement,setting,value
CC(C)(C)O/N=C/c1cc(NC(=S)c2ccsc2)ccc1Cl,TGI,[1],55.2 µM
same,TGI,[2],28.8 µM
same,TGI,[3],29.5 µM
same,TGI,[4],26.1 µM
same,TGI,[5],57.3 µM
same,TGI,[6],34.9 µM
same,TGI,[7],17.1 µM
same,TGI,[8],33.9 µM
same,TGI,[9],26.5 µM
same,TGI,[10],25.2 µM
same,TGI,[11],31.6 µM
same,TGI,[12],39.2 µM
same,TGI,[13],43.8 µM
same,TGI,[14],29.8 µM
same,TGI,[15],28.3 µM
same,TGI,[16],27.7 µM
same,TGI,[17],23.3 µM
same,TGI,[18],38.5 µM
same,TGI,[19],32.2 µM
same,TGI,[20],32.1 µM
same,TGI,[21],30.2 µM
same,TGI,[22],30.7 µM
same,TGI,[23],28.1 µM
same,TGI,[24],26.1 µM
same,TGI,[25],63.8 µM
same,TGI,[26],36.8 µM
same,TGI,[27],26.6 µM
same,TGI,[28],24.9 µM
same,TGI,[29],32.9 µM
same,TGI,[30],35.9 µM
same,TGI,[31],31.4 µM
same,TGI,[32],57 µM
same,TGI,[33],39 µM
same,TGI,[34],12.2 µM
same,TGI,[35],46.8 µM
same,TGI,[36],37.7 µM
same,TGI,[37],37 µM
same,TGI,[38],28.7 µM
same,TGI,[39],20.7 µM
same,TGI,[40],24.8 µM
same,TGI,[41],16.9 µM
same,TGI,[42],13.9 µM
same,TGI,[43],77.4 µM
same,TGI,[44],27.6 µM
same,TGI,[45],29.4 µM
same,TGI,[46],27 µM
same,TGI,[47],25.3 µM
same,TGI,[48],24.6 µM
same,TGI,[49],33.6 µM
same,TGI,[50],38.2 µM
same,TGI,[51],26.1 µM
same,TGI,[52],31.5 µM
same,TGI,[53],41.1 µM
same,TGI,[54],16.1 µM
same,TGI,[55],29.7 µM
